Results from patent US20230278987A1, “Antimicrobial Compounds and Methods” (Curza Global, LLC, priority 2019, published 2023).
Converted amounts (≈) assume the structure as drawn. Counter-ions that a name gives are not always drawn. Like-named read-outs stand apart in the source and are kept apart here.

Legend:
E.faecalis (Ef) = assay: Broth microdilution MIC against E.faecalis (Ef); type: cell-based; settings: Enterococcus faecalis
How it was run: (§1)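 Log-phase cultures grown at 35 ± 2° C to 0.5 McFarland (A600nm) were diluted and added at 5 × 10^4 CFU/well to two-fold compound dilutions in CAMHB, with or without bicarbonate (6.25 or 25 mM final) or human serum (0-50%). MICs followed CLSI M07-A9, slightly modified.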

S.aureus (Sa) = assay: Broth microdilution MIC against S.aureus (Sa); type: cell-based; settings: Staphylococcus aureus
How it was run: as §1

[1] = target: Rabbit Reticulocyte Lysate (eukaryotic protein synthesis); assay: Rabbit Reticulocyte Lysate: inhibition of eukaryotic protein synthesis (luciferase); type: biochemical; settings: 30° C. for 90 minutes, read-out: retic. IC50
How it was run: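 Nuclease-treated rabbit reticulocyte lysate translating luciferase control RNA, incubated 90 min at 30° C with eight 2-fold compound dilutions. Luminescence measured after adding luciferase reagent; % inhibition relative to no-inhibitor wells, with no-RNA wells as background.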

A.baumannii (Ab) = assay: Broth microdilution MIC against A.baumannii (Ab); type: cell-based; settings: Acinetobacter baumannii
How it was run: as §1

[2] = tested on: E.coli S30 extract (bacterial protein synthesis); assay: E.coli S30 extract: inhibition of bacterial protein synthesis (luciferase); type: biochemical; settings: 37° C. for 1 hour
How it was run: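 Compounds (8-point 2-fold series) were incubated 1 h at 37 °C with E. coli S30 extract, premix, amino acids and pBESTluc plasmid. Reactions were chilled, luciferase reagent added and luminescence measured. Inhibition expressed relative to water controls; background from reactions lacking DNA.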

P.aeruginosa (Pa) = assay: Broth microdilution MIC against P.aeruginosa (Pa); type: cell-based; settings: Pseudomonas aeruginosa
How it was run: as §1

E.coli (Ec) = assay: Broth microdilution MIC against E.coli (Ec); type: cell-based; settings: Escherichia coli
How it was run: as §1

[3] = CAMHB supplemented with sodium bicarbonate 6.25 mM, read-out: Ef +bicarb 6.25 (MIC)
[4] = CAMHB supplemented with sodium bicarbonate 6.25 mM, read-out: Sa + bicarb 6.25 (MIC)
[5] = CAMHB supplemented with sodium bicarbonate 6.25 mM, read-out: Ab +bicarb 6.25 (MIC)
[6] = CAMHB supplemented with sodium bicarbonate 6.25 mM, read-out: Pa +bicarb 6.25 (MIC)
[7] = CAMHB supplemented with sodium bicarbonate 6.25 mM, read-out: E. coli + bicarb 6.25 (MIC)
[8] = read-out: Ef +bicarb 6.25 (MIC)
[9] = read-out: Sa + bicarb 6.25 (MIC)
[10] = read-out: Ab +bicarb 6.25 (MIC)
[11] = read-out: Pa +bicarb 6.25 (MIC)
[12] = read-out: E. coli + bicarb 6.25 (MIC)

| Compound | MIC (E.faecalis (Ef); [3]) | MIC (S.aureus (Sa); [4]) | IC50 [1] | MIC (A.baumannii (Ab); [5]) | IC50 [2] | MIC (P.aeruginosa (Pa); [6]) | MIC (E.coli (Ec); [7]) | also measured |
| --- | --- | --- | --- | --- | --- | --- | --- | --- |
| CC(C)(N)C(=O)N1CCN(C(=O)Nc2ccn(-c3ccc4c(c3)CC(N[C@H]3CC[C@H](N)CC3)C4)c(=O)n2)CC1 (stereo partly drawn) [Compound 38, Hydrochloride Salt] | > 32 µg/mL | 8 to 32 µg/mL | ≥ 1 µM | > 32 µg/mL | < 0.5 µM | > 32 µg/mL | < 8 µg/mL | – |
| CC(C)(N)C(=O)N1CCN(C(=O)Nc2ccn(-c3ccc4c(c3)CCC(N3CC(N)C3)C4)c(=O)n2)CC1 (stereo not drawn) [Compound 39] | > 32 µg/mL | 8 to 32 µg/mL | ≥ 1 µM | > 32 µg/mL | 0.5 to 1 µM | > 32 µg/mL | 8 to 32 µg/mL | – |
| CC(C)(N)C(=O)N1CCN(C(=O)Nc2ccn(-c3ccc4c(c3)CCC(N3CC(CN)C3)C4)c(=O)n2)CC1 (stereo not drawn) [Compound 40, Hydrochloride Salt] | 8 to 32 µg/mL | < 8 µg/mL | ≥ 1 µM | > 32 µg/mL | < 0.5 µM | > 32 µg/mL | < 8 µg/mL | – |
| CC(C)(N)C(=O)N1CCN(C(=O)Nc2ccn(-c3ccc4c(c3)CCC(N3CCC(CCN)CC3)C4)c(=O)n2)CC1 (stereo not drawn) [Compound 42, 4-(2-Amino-2-methylpropanoyl)-N-(1-(6-(4-(2-aminoethyl)piperidin-1-yl)-5,6,7,8-tetrahydronaphthalen-2-yl)-2-oxo-1,2-dihydropyrimidin-4-yl)piperazine-1-carboxamide hydrochloride salt] | – | – | ≥ 1 µM | – | ≥ 1 µM | – | – | MIC (E.faecalis (Ef); [8]): > 32 µg/mL; MIC (S.aureus (Sa); [9]): 8 to 32 µg/mL; MIC (A.baumannii (Ab); [10]): > 32 µg/mL; MIC (P.aeruginosa (Pa); [11]): > 32 µg/mL; MIC (E.coli (Ec); [12]): < 8 µg/mL |
| CC(C)(N)C(=O)N1CCN(C(=O)Nc2ccn(-c3ccc4c(c3)CCC(N3CCCC(N)CC3)C4)c(=O)n2)CC1 (stereo not drawn) [Compound 43] | > 32 µg/mL | < 8 µg/mL | ≥ 1 µM | > 32 µg/mL | < 0.5 µM | > 32 µg/mL | < 8 µg/mL | MIC (E.faecalis (Ef); CAMHB supplemented with sodium bicarbonate 25 mM, read-out: Ef +bicarb 25 (MIC)): < 8 µg/mL; MIC (S.aureus (Sa); CAMHB supplemented with sodium bicarbonate 25 mM, read-out: Sa + bicarb 25 (MIC)): < 8 µg/mL; MIC (A.baumannii (Ab); CAMHB supplemented with sodium bicarbonate 25 mM, read-out: Ab +bicarb 25 (MIC)): 8 to 32 µg/mL (≈ 14.5 to 58.1 µM); MIC (P.aeruginosa (Pa); CAMHB supplemented with sodium bicarbonate 25 mM, read-out: Pa +bicarb 25 (MIC)): 8 to 32 µg/mL (≈ 14.5 to 58.1 µM); MIC (E.coli (Ec); CAMHB supplemented with sodium bicarbonate 25 mM, read-out: E.coli + bicarb 25 (MIC)): < 8 µg/mL |
| COC(=O)N[C@H]1CC[C@H](NC2CCc3cc(-n4ccc(NC(=O)N5CCN(C(=O)C(C)(C)N)CC5)nc4=O)ccc3C2)C1 (stereo partly drawn) [Compound 45, Methyl ((1S,3S)-3-((6-(4-(4-(2-amino-2-methylpropanoyl)piperazine-1-carboxamido)-2-oxopyrimidin-1(2H)-yl)-1,2,3,4-tetrahydronaphthalen-2-yl)amino)cyclopentyl)Carbamate Hydrochloride Salt] | – | – | ≥ 1 µM | – | ≥ 1 µM | – | – | MIC (E.faecalis (Ef); [8]): > 32 µg/mL; MIC (S.aureus (Sa); [9]): > 32 µg/mL; MIC (A.baumannii (Ab); [10]): > 32 µg/mL; MIC (P.aeruginosa (Pa); [11]): > 32 µg/mL; MIC (E.coli (Ec); [12]): > 32 µg/mL |
| CC(C)(N)C(=O)N1CCN(C(=O)Nc2ccn(-c3ccc4c(c3)CN([C@H]3CC[C@H](N)CC3)C4)c(=O)n2)CC1 [Compound 46, 4-(2-amino-2-methylpropanoyl)-N-(1-(2-((trans)-4-aminocyclohexyl)isoindolin-5-yl)-2-oxo-1,2-dihydropyrimidin-4-yl)piperazine-1-carboxamide hydrochloride salt] | – | – | ≥ 1 µM | – | < 0.5 µM | – | – | MIC (E.faecalis (Ef); read-out: Ef +bicarb 25 (MIC)): 8 to 32 µg/mL; MIC (S.aureus (Sa); read-out: Sa + bicarb 25 (MIC)): < 8 µg/mL; MIC (A.baumannii (Ab); read-out: Ab +bicarb 25 (MIC)): 8 to 32 µg/mL; MIC (P.aeruginosa (Pa); read-out: Pa +bicarb 25 (MIC)): 8 to 32 µg/mL; MIC (E.coli (Ec); read-out: E.coli + bicarb 25 (MIC)): < 8 µg/mL |
